Test results reported in paper PMC7917901 (Marine Drugs, 2021).
Where two headings read alike, the source gives them in different places.

Key:
[1] = test system: nerve injury-induced hyperalgesia in mice; conditions: mouse, in vivo, sc; cited from earlier work
C57BL/6J mice [2] = experiment: Induction of mechanical allodynia and general observations after intraplantar oxaliplatin or cisplatin; conditions: 40 µg/paw i.pl.
[3] = test system: mechanical and cold allodynia; conditions: cited from earlier work
[4] = human, in vivo; cited from earlier work
C57BL/6J mice [5] = conditions: mouse, in vivo
[6] = to oxalate and dichloro 1,2-diaminocyclohexyl-platinum complex; ref [48]; cited from earlier work
Source text: Although both oxaliplatin and cisplatin are platinum based antineoplastic drugs, and both act by DNA alkylation, they differ markedly in their ability to elicit pain syndromes. […] The most distinctive feature of oxaliplatin is ...

COC(=O)C1=C(C)NC(C)=C(C(=O)OC)C1c1ccccc1[N+](=O)[O-] [nifedipine]
Effect on nerve injury-induced hyperalgesia [1]: ineffective

N.N.[Cl][Pt][Cl] [cisplatin]
Adverse signs after platinum drug injection (C57BL/6J mice [2]): No sign of adverse effects including, licking, shaking, or lameness of the injected paws was observed
Mechanical PWT after cisplatin (C57BL/6J mice [2]; right hind paw, 24 h after injection, mean ± SEM, n = 18, naïve 3.3 ± 0.1 g, p < 0.0001): 1.9 ± 0.1 g
Type of allodynia caused ([3]; ref [45],[46],[47]): only evokes mechanical allodynia

CSCC[C@@H]1NC(=O)[C@H](CC(C)C)NC(=O)[C@H](CCCNC(=N)N)NC(=O)[C@H](CO)NC(=O)[C@@H]2CSSC[C@@H]3NC(=O)[C@H](CO)NC(=O)CNC(=O)[C@H]([C@@H](C)O)NC(=O)[C@H](CSSC[C@H](N)C(=O)N[C@@H](CCCCN)C(=O)NCC(=O)N[C@@H](CCCCN)C(=O)NCC(=O)N[C@@H](C)C(=O)N[C@@H](CCCCN)C(=O)N2)NC(=O)[C@H](CSSC[C@@H](C(N)=O)NC(=O)[C@H](CCCCN)NC(=O)CNC(=O)[C@H](CO)NC(=O)[C@H](CCCNC(=N)N)NC3=O)NC(=O)[C@H](CC(=O)O)NC(=O)[C@H](Cc2ccc(O)cc2)NC1=O [MVIIA]
Dose limiting side effects [4]: dose limiting side effects including dizziness, nystagmus, sedation, blurred vision, and orthostatic hypotension

O=C1[O][Pt]2([NH][C@@H]3CCCC[C@H]3[NH]2)[O]C1=O [oxaliplatin]
Adverse signs after platinum drug injection (C57BL/6J mice [5]): maintained healthy appearance and body weight with no sign of licking, shaking, or lameness of the injected paw
Mechanical PWT after oxaliplatin (C57BL/6J mice [5]): 1.4 ± 0.1 g
Non-enzymatic transformation [6]: fast, non-enzymatic transformation
Type of allodynia caused ([3]; in vivo): causes both mechanical and cold allodynia
